The record followed here is patent US4146610A, “Antibiotics MM13902” (Beecham Group Limited, priority 1974, dated 1979).

Counter-ions that a name gives are not always drawn.

The subject of one data set is carbonic anhydrase. Briefly: Enzyme inhibition (selectivity). The format is biochemical. As to conditions: at concentrations in excess of those required to inhibit the β-lactamase of E. coli.
Another data set has as its system monoamine oxidase. Briefly: Enzyme inhibition (selectivity). To be noted: at concentrations in excess of those required to inhibit the β-lactamase of E. coli. The format is biochemical.
In a further data set the test system is chymotrypsin. Briefly: Enzyme inhibition (selectivity). The format is biochemical. To be noted: at concentrations in excess of those required to inhibit the β-lactamase of E. coli.
For a further data set, the system named is dopa decarboxylase. Briefly: Enzyme inhibition (selectivity). Type of data set: biochemical. As to conditions: at concentrations in excess of those required to inhibit the β-lactamase of E. coli.
Data set [1] deals with β-lactamases produced by Escherichia coli, Klebsiella aerogenes and Staphylococcus aureus. As to the kind of experiment: Inhibition of β-lactamases of various species. Type of data set: biochemical.
The subject of a further data set is urease. Briefly: Enzyme inhibition (selectivity). As to conditions: at concentrations in excess of those required to inhibit the β-lactamase of E. coli. Type of data set: biochemical.
The next data set has as its system tyrpsin. Briefly: Enzyme inhibition (selectivity). Type of data set: biochemical. As to conditions: at concentrations in excess of those required to inhibit the β-lactamase of E. coli.
The test system of the next data set is Klebsiella aerogenes. As to the kind of experiment: Antibiotic activity in arbitrary units. Type of data set: cell-based. On the procedure:
The material produced above was arbitrarily assigned an activity of 340 l/ml. Assays were determined as described in Description 3.

The nature of a further data set: Stability. To be noted: unsalted acid form. The format is physicochemical.

Take `CC(=O)N/C=C/[S+]([O-])C1=C(C(=O)O)N2C(=O)C(C(C)OS(=O)(=O)O)C2C1` (stereo not shown) [MM 4550A]: the enzyme inhibition result in the data set on carbonic anhydrase, in the data set on monoamine oxidase, in the data set with chymotrypsin, in the data set with dopa decarboxylase, in the data set on urease and in the data set with tyrpsin was “does not inhibit” each time. In [1], the “enzyme inhibitory activity against β-lactamases” value is recorded as “possesses enzyme inhibitory activity”.
On to `CC(=O)N/C=C/SC1=C(C(=O)O)N2C(=O)C(C(C)OS(=O)(=O)O)C2C1` (stereo not shown) [MM 13902], for which, in the data set on Klebsiella aerogenes (partially purified salt, after XAD 4), the activity is given as 37,000 units/mg. Further, the stability result in “Stability” was “tends to be unstable”.
`CC(=O)N/C=C/SC1=C(C(=O)O)N2C(=O)C(C(C)OS(=O)(=O)O)C2C1` (stereo not shown) [di-sodium salt of MM 13902]: the activity in the data set on Klebsiella aerogenes (yellowish powder after cellulose chromatography) is reported as 73,000 units/mg.
